The NIST ThermoML archive (doi:10.1021/je060139a)

Assays:
[1] = xn = mol fraction of the nth substance listed; conditions: Wilhelmy plate method
[2] = refractive index (Na D-line) (dimensionless); xn = mol fraction of the nth substance listed; conditions: 100.5 kPa, Liquid, Standard Abbe refractometry

CCOC(=O)CC(C)=O [ethyl 3-oxobutanoate] + CCO
Conditions	refractive index, 288.15 K	refractive index, 298.18 K	refractive index, 308.15 K	refractive index, 318.15 K	surface tension liquid-gas, 288.15 K [mN/m]	surface tension liquid-gas, 298.18 K [mN/m]	surface tension liquid-gas, 308.15 K [mN/m]	surface tension liquid-gas, 318.15 K [mN/m]
[1], x1 = 0.05	–	–	–	–	23.53	22.77	21.91	20.98
[1], x1 = 0.1	–	–	–	–	24.1	23.31	22.42	21.46
[1], x1 = 0.15	–	–	–	–	24.65	23.83	22.91	21.94
[1], x1 = 0.2	–	–	–	–	25.22	24.38	23.42	22.43
[1], x1 = 0.25	–	–	–	–	25.77	24.89	23.9	22.9
[1], x1 = 0.3	–	–	–	–	26.28	25.38	24.38	23.37
[1], x1 = 0.35	–	–	–	–	26.78	25.88	24.84	23.83
[1], x1 = 0.4	–	–	–	–	27.28	26.36	25.32	24.3
[1], x1 = 0.45	–	–	–	–	27.8	26.86	25.81	24.79
[1], x1 = 0.5	–	–	–	–	28.35	27.4	26.32	25.29
[1], x1 = 0.55	–	–	–	–	28.92	27.96	26.84	25.8
[1], x1 = 0.6	–	–	–	–	29.46	28.52	27.38	26.31
[1], x1 = 0.65	–	–	–	–	30.02	29.04	27.9	26.81
[1], x1 = 0.7	–	–	–	–	30.54	29.55	28.4	27.3
[1], x1 = 0.75	–	–	–	–	31.05	30.06	28.89	27.78
[1], x1 = 0.8	–	–	–	–	31.53	30.54	29.36	28.24
[1], x1 = 0.85	–	–	–	–	32.02	31.01	29.81	28.7
[1], x1 = 0.9	–	–	–	–	32.47	31.46	30.26	29.14
[1], x1 = 0.95	–	–	–	–	32.91	31.89	30.68	29.56
[1], x1 = 1	–	–	–	–	33.3	32.3	31.1	30
[2], x1 = 0.05	1.3696	1.3654	1.3612	1.3572	–	–	–	–
[2], x1 = 0.1	1.3751	1.3709	1.3666	1.3625	–	–	–	–
[2], x1 = 0.15	1.38	1.3757	1.3714	1.3672	–	–	–	–
[2], x1 = 0.2	1.3843	1.3801	1.3758	1.3715	–	–	–	–
[2], x1 = 0.25	1.3882	1.384	1.3797	1.3755	–	–	–	–
[2], x1 = 0.3	1.3918	1.3876	1.3833	1.379	–	–	–	–
[2], x1 = 0.35	1.3951	1.3908	1.3866	1.3823	–	–	–	–
[2], x1 = 0.4	1.3981	1.3938	1.3896	1.3852	–	–	–	–
[2], x1 = 0.45	1.4009	1.3965	1.3923	1.388	–	–	–	–
[2], x1 = 0.5	1.4034	1.3991	1.3949	1.3905	–	–	–	–
[2], x1 = 0.55	1.4058	1.4014	1.3972	1.3928	–	–	–	–
[2], x1 = 0.6	1.4079	1.4036	1.3994	1.395	–	–	–	–
[2], x1 = 0.65	1.41	1.4056	1.4014	1.397	–	–	–	–
[2], x1 = 0.7	1.4119	1.4075	1.4033	1.3989	–	–	–	–
[2], x1 = 0.75	1.4137	1.4093	1.4051	1.4007	–	–	–	–
[2], x1 = 0.8	1.4154	1.4111	1.4069	1.4024	–	–	–	–
[2], x1 = 0.85	1.417	1.4126	1.4084	1.404	–	–	–	–
[2], x1 = 0.9	1.4184	1.4141	1.4099	1.4054	–	–	–	–
[2], x1 = 0.95	1.4198	1.4154	1.4112	1.4068	–	–	–	–
[2], x1 = 1	1.4209	1.4166	1.4125	1.408	–	–	–	–

COC(=O)c1ccccc1 [methyl benzoate] + CCO
Conditions	refractive index, 288.15 K	refractive index, 298.18 K	refractive index, 308.15 K	refractive index, 318.15 K	surface tension liquid-gas, 288.15 K [mN/m]	surface tension liquid-gas, 298.18 K [mN/m]	surface tension liquid-gas, 308.15 K [mN/m]	surface tension liquid-gas, 318.15 K [mN/m]
[1], x1 = 0.05	–	–	–	–	23.8	23	22.1	21.2
[1], x1 = 0.1	–	–	–	–	24.63	23.78	22.87	21.9
[1], x1 = 0.15	–	–	–	–	25.4	24.51	23.57	22.6
[1], x1 = 0.2	–	–	–	–	26.18	25.25	24.28	23.3
[1], x1 = 0.25	–	–	–	–	26.92	25.96	24.94	23.95
[1], x1 = 0.3	–	–	–	–	27.67	26.66	25.59	24.6
[1], x1 = 0.35	–	–	–	–	28.37	27.3	26.2	25.2
[1], x1 = 0.4	–	–	–	–	29.04	27.9	26.8	25.8
[1], x1 = 0.45	–	–	–	–	29.69	28.55	27.4	26.4
[1], x1 = 0.5	–	–	–	–	30.33	29.16	28	27
[1], x1 = 0.55	–	–	–	–	30.97	29.79	28.6	27.6
[1], x1 = 0.6	–	–	–	–	31.62	30.41	29.2	28.2
[1], x1 = 0.65	–	–	–	–	32.29	31.05	29.8	28.8
[1], x1 = 0.7	–	–	–	–	33.01	31.75	30.5	29.46
[1], x1 = 0.75	–	–	–	–	33.78	32.5	31.2	30.16
[1], x1 = 0.8	–	–	–	–	34.6	33.3	32	30.92
[1], x1 = 0.85	–	–	–	–	35.6	34.2	32.8	31.76
[1], x1 = 0.9	–	–	–	–	36.6	35.2	33.8	32.7
[1], x1 = 0.95	–	–	–	–	37.6	36.2	34.8	33.8
[1], x1 = 1	–	–	–	–	38.6	37.2	35.8	34.8
[2], x1 = 0.05	1.38013	1.37591	1.37154	1.36738	–	–	–	–
[2], x1 = 0.1	1.39497	1.39068	1.38617	1.38191	–	–	–	–
[2], x1 = 0.15	1.40825	1.40383	1.39926	1.39488	–	–	–	–
[2], x1 = 0.2	1.41993	1.41549	1.41088	1.40643	–	–	–	–
[2], x1 = 0.25	1.43052	1.42606	1.42138	1.41686	–	–	–	–
[2], x1 = 0.3	1.44018	1.4357	1.43104	1.42643	–	–	–	–
[2], x1 = 0.35	1.44896	1.44448	1.4398	1.43518	–	–	–	–
[2], x1 = 0.4	1.45703	1.45255	1.44784	1.44318	–	–	–	–
[2], x1 = 0.45	1.4645	1.46	1.45528	1.45059	–	–	–	–
[2], x1 = 0.5	1.47142	1.46691	1.4622	1.45746	–	–	–	–
[2], x1 = 0.55	1.47785	1.47332	1.46859	1.46384	–	–	–	–
[2], x1 = 0.6	1.48384	1.4793	1.47455	1.46979	–	–	–	–
[2], x1 = 0.65	1.48938	1.48487	1.4801	1.47528	–	–	–	–
[2], x1 = 0.7	1.49451	1.49	1.4852	1.48039	–	–	–	–
[2], x1 = 0.75	1.49936	1.49482	1.49002	1.48515	–	–	–	–
[2], x1 = 0.8	1.50381	1.49926	1.49445	1.48961	–	–	–	–
[2], x1 = 0.85	1.50803	1.50347	1.49866	1.49378	–	–	–	–
[2], x1 = 0.9	1.512	1.50743	1.5026	1.49773	–	–	–	–
[2], x1 = 0.95	1.51569	1.51112	1.50631	1.50144	–	–	–	–
[2], x1 = 1	1.51915	1.51467	1.50993	1.50514	–	–	–	–
